Assay results as given in patent US8350065B2, “5,6-dimethyl xanthone-4-acetic acid derivatives and method of preparing the same” (Grand Pharma (China) Co., Ltd., priority 2008, dated 2013).

Tested on: Clone No. 38 tumor
Assay: Anti-tumor effect by short-term tissue assay in tumor-bearing mice (titled cytotoxic activity)
Type: in vivo
Settings: mice with Clone No. 38 tumor; for OD (minimum dose of brine injection administered by peritoneal injection and causing activity): peritoneal injection in brine, dose raised in 1.5-fold steps to maximum tolerated dose; for Activity (necrosis of tumor cross section): peritoneal injection, short-term tissue assay
Description: Cytotoxic activity of the compounds represented by formula (I) was measured by the following method.
Clone No. 38 tumor was obtained from Mason Research Inc. and injected into experimental mice. […] Each dosage level was measured independently at least two times (commonly, three times). For each measurement, each group had five mice. The anti-tumor effect of the compounds was measured through short-term tissue assay.
OD refers to the minimum dose (mg/Kg) of brine injection administered by peritoneal injection and causing activity; ++ refers to >90% of cross section is necrotic.

Structure (SMILES)	OD (minimum dose of brine injection administered by peritoneal injection and causing activity) [mg/kg]	Activity (necrosis of tumor cross section)
Cc1cc(CC(=O)O)c2oc3c(C)c(C)ccc3c(=O)c2c1 [NO 2, 2,5,6-trimethyl xanthone-4-acetic acid]	25	++ (>90% of cross section is necrotic)
Cc1cc2c(=O)c3cccc(CC(=O)O)c3oc2c(C)c1C [NO 3, 5,6,7-trimethylxanthone-4-acetic acid]	30	++ (>90% of cross section is necrotic)
Cc1cc(C)c2c(=O)c3cccc(CC(=O)O)c3oc2c1C [NO 4, 5,6,8-trimethylxanthone-4-acetic acid]	30	++ (>90% of cross section is necrotic)
Cc1ccc2c(=O)c3cccc(CC(=O)O)c3oc2c1C [NO 1, 5,6-dimethyl xanthone-4-acetic acid]	30	++ (>90% of cross section is necrotic)
